Drawing on ChEMBL document CHEMBL4190171, “Chemical probes and inhibitors of bromodomains outside the BET family” (Medchemcomm, 2016), this text covers IC50, Kd and EC50 for ten compounds.

SMILES strings stand for the structures.

Test [1] addresses Cellular tumor antigen p53 (Homo sapiens, UniProt P04637). The test is described as follows: Inhibition of p53-induced (unknown origin) expressed in human RKO cells assessed as reduction in p53-induced p21 activation measured after 24 hrs by luciferase reporter gene assay. The test is classed as cell-based. For orientation: In a reporter assay the amount or activity of a reporter protein is the signal.

For the next test, the system named is THP-1. The test is described as follows: Inhibition of LPS-stimulated IL-6 secretion in human THP1 cells by ELISA. In kind it is functional, cell-based. (In general: In an ELISA, binding on a coated surface is turned into a signal by an enzyme label.)
Test [2] has as its target T1, CREB-binding protein (Homo sapiens, UniProt Q92793). Put plainly: Binding affinity to recombinant human His-tagged CBP bromodomain expressed in bacterial expression system by isothermal titration calorimetry. In general terms: Isothermal titration calorimetry measures the heat released or taken up as one component is titrated into another.
In test [3] the target is T2, Histone acetyltransferase p300 (Homo sapiens, UniProt Q09472). The test is described as follows: Binding affinity to recombinant human His-tagged EP300 expressed in bacterial expression system by isothermal titration calorimetry.
For test [4], the target named is T3, Bromodomain-containing protein 4 (Homo sapiens, UniProt O60885). The test is described as follows: Binding affinity to human BRD4 bromodomain1 by isothermal titration calorimetry.
In test [5] the target is T2, Histone acetyltransferase p300. The test is described as follows: Binding affinity to EP300 (unknown origin) by isothermal titration calorimetry.
Test [6] deals with T1, CREB-binding protein. Put plainly: Binding affinity to C-terminally biotinylated N-terminal His10-tagged human CBP bromodomain (R1081 to G1198 residues) expressed in Escherichia coli BL21(DE3) by isothermal titration calorimetry.
In test [7] the target is T3, Bromodomain-containing protein 4. Put plainly: Displacement of Halo-tagged histone H3.3 from Nluc-BRD4 (unknown origin) expressed in HEK293 cells using furimazine as substrate pretreated for 18 hrs followed by substrate addition measured within 5 mins by NanoBRET assay. The test is classed as cell-based.
Test [8] has the same target. The test is described as follows: Binding affinity to recombinant BRD4 bromodomain1 (unknown origin) by isothermal titration calorimetry.
The target in test [9] is T4, Histone acetyltransferase KAT2B (Homo sapiens, UniProt Q92831).
T4 sequence (Q92831 whole entry): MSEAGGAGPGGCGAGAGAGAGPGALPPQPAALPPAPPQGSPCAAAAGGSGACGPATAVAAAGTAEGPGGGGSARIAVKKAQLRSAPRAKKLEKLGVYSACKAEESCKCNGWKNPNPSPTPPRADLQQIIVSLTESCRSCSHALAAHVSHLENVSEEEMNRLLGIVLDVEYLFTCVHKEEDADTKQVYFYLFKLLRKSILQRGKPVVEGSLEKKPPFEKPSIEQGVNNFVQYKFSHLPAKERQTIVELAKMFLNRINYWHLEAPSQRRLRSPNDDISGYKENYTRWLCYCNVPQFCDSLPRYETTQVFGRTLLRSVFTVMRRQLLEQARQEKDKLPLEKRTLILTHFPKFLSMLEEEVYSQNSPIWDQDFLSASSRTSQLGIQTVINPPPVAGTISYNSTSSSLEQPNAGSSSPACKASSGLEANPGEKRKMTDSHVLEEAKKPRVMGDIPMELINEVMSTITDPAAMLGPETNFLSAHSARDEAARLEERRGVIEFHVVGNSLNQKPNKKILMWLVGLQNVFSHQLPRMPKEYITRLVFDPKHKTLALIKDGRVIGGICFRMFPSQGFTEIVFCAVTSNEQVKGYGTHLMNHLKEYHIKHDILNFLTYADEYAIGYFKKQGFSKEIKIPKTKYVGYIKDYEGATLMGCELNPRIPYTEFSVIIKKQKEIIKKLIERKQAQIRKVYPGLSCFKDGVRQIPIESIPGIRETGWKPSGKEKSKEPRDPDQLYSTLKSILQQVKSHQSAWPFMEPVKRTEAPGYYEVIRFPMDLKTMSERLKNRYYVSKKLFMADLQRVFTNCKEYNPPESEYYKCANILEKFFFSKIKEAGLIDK
Test [10] deals with Human immunodeficiency virus 1. Put plainly: Antiviral activity against HIV1 3B infected in human C8166 cells assessed as reduction in virus-induced cytopathic effect by measuring syncytium formation after 3 days by inverted microscopic analysis. The test is classed as functional, organism-based. Conditions: Human immunodeficiency virus 1, 3B, C8166, 72 h.
Test [11] concerns the target T4, Histone acetyltransferase KAT2B. The source holds these as a separate data set.
Description: Displacement of biotinylated small molecule ligand from His/FLAG-tagged PCAF bromodomain (719 to 832 residues) (unknown origin) after 15 mins by AlphaLisa method
The target in test [12] is T5, ATPase family AAA domain-containing protein 2B (Homo sapiens, UniProt Q9ULI0).
T5 sequence (Q9ULI0 whole entry): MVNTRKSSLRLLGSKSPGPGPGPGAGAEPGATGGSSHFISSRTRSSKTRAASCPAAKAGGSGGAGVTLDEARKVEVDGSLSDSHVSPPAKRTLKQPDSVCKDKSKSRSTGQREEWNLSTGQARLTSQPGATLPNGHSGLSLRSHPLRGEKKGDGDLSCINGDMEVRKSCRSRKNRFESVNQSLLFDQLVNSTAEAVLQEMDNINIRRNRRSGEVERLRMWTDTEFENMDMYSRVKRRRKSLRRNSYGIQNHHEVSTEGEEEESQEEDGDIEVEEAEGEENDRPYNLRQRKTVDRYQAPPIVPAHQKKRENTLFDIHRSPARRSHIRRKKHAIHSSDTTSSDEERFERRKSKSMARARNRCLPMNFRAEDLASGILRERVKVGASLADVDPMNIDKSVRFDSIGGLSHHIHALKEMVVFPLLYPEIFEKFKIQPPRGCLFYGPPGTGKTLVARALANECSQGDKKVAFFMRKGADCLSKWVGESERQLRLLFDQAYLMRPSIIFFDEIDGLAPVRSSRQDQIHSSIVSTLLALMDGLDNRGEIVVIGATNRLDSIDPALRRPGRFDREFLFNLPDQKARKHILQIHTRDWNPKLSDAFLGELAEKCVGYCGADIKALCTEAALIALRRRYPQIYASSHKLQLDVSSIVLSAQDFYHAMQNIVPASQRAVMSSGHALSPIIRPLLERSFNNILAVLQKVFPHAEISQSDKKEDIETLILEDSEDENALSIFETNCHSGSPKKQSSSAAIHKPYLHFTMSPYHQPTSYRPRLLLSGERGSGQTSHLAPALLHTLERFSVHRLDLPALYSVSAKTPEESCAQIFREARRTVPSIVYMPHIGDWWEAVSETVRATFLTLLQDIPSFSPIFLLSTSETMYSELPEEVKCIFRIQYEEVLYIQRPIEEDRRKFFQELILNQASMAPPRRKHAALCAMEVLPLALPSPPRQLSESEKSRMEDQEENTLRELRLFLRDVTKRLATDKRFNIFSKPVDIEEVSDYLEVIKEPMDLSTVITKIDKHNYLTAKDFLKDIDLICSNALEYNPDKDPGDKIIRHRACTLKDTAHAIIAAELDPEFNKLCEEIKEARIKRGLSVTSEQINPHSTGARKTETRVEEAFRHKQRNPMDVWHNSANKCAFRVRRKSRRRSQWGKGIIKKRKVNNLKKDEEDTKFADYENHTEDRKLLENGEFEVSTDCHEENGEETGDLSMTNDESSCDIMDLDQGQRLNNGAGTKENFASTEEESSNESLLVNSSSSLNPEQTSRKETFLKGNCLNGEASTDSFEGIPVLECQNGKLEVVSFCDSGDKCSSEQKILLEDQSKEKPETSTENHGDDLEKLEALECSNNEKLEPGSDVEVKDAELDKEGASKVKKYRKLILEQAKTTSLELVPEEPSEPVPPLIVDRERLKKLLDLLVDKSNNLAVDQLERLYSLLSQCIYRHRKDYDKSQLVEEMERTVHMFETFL
The test is described as follows: Binding affinity to partial length human ATAD2B (Q955 to R1082) expressed in bacterial expression system by Bromoscan method.

Test [13] has as its target T1, CREB-binding protein. The test is described as follows: Inhibition of CBP bromodomain (unknown origin) using H3K56Ac peptide as substrate by Alphascreen assay.
Test [14] addresses T1, CREB-binding protein. Put plainly: Binding affinity to CBP bromodomain (unknown origin) by tryptophan fluorescence assay.

T1 sequence (Q92793 whole entry): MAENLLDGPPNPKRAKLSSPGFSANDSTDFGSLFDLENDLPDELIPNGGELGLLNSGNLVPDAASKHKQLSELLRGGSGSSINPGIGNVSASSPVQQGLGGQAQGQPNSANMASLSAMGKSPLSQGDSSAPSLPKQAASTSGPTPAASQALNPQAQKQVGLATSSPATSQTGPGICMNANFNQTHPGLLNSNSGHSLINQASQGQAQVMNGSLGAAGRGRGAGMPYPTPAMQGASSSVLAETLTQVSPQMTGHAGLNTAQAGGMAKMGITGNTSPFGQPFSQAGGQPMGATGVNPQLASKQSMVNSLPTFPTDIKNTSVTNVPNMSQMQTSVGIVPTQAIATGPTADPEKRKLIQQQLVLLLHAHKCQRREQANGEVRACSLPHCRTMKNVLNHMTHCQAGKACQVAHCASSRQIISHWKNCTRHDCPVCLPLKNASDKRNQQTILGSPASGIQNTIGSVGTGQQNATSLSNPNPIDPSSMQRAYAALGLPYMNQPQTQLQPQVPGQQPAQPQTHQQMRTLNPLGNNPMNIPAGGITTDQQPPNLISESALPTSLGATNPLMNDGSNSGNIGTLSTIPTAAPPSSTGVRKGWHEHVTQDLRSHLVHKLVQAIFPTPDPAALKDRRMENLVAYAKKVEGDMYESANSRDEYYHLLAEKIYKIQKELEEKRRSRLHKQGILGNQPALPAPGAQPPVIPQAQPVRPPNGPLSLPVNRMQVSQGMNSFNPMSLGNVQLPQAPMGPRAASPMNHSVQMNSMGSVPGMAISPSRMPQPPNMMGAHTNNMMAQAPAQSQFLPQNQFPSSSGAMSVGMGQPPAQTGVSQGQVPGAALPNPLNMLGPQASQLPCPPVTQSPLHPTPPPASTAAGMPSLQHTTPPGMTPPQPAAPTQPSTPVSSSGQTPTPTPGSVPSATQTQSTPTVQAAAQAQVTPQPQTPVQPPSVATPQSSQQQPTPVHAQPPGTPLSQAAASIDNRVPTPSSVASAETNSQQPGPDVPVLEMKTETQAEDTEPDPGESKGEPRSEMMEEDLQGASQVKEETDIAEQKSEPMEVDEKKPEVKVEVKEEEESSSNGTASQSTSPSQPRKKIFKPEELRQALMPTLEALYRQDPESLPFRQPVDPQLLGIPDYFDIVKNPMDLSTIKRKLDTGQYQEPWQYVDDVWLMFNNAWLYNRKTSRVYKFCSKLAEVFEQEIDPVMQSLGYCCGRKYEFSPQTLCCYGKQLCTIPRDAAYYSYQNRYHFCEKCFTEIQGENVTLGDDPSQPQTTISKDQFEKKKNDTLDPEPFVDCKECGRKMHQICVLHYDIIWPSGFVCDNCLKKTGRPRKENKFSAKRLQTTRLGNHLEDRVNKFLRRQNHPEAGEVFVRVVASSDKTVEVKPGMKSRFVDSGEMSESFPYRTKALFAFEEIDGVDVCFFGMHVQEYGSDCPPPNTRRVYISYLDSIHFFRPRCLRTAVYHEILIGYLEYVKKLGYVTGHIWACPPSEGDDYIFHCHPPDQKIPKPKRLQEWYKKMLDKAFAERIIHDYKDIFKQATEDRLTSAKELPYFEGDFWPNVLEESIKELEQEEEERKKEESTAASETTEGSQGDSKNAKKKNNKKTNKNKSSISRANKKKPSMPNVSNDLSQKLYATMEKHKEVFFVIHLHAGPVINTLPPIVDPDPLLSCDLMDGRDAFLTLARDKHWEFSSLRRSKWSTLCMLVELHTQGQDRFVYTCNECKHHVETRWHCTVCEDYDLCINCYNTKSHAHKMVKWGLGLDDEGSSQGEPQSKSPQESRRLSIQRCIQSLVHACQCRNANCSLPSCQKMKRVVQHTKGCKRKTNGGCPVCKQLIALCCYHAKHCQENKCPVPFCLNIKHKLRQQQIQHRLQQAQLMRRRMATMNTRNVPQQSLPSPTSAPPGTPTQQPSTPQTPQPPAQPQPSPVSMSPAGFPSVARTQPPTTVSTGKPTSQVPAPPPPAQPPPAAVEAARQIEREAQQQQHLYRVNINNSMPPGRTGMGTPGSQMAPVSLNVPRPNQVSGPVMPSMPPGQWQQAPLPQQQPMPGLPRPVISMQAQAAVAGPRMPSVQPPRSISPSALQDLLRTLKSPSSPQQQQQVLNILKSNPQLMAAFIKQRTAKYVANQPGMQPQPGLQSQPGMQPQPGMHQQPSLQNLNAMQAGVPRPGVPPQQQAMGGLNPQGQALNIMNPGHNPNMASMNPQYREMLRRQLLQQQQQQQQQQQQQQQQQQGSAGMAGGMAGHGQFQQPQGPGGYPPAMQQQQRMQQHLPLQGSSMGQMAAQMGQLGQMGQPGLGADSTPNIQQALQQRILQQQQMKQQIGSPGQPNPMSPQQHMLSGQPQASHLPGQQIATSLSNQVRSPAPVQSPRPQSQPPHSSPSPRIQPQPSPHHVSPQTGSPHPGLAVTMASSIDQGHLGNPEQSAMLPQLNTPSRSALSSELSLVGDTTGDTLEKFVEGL
Chain of Cellular tumor antigen p53 (P04637 whole entry): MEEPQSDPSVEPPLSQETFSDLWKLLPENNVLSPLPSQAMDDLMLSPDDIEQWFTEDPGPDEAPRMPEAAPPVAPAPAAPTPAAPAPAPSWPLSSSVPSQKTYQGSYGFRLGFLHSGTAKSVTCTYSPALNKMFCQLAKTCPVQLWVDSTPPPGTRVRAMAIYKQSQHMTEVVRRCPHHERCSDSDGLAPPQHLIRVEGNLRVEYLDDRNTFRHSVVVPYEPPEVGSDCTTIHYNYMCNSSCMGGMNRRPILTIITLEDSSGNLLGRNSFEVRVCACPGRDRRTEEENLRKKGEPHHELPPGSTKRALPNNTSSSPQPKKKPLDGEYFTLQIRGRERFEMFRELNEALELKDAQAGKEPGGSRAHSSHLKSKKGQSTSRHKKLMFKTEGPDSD

Broadly, the IC50 is the concentration at which inhibition is half-maximal. Take `COc1ccc(CCc2nc3cc(-c4c(C)noc4C)ccc3n2C[C@H](C)N2CCOCC2)cc1Cl`: the half-inhibitory concentration (IC50) in test [1] was 1.54 µM. On to `Cc1cc(=O)n(C)c2cc(N3C(=O)CC[C@H](NS(=O)(=O)CC(C)C)[C@H]3c3ccc(Cl)cc3)ccc12`, for which the IC50 with THP-1 is less than 10 µM. One may read the Kd as the equilibrium constant for the complex coming apart. Consider `Cc1noc(C)c1-c1ccc2c(c1)nc(CCc1ccccc1)n2CCN1CCOCC1`, for which the Kd at CREB-binding protein [2] is 0.32 µM; in test [3], 0.35 µM. For `CCC(=O)N1CCOc2c(cc(-c3ccc(OC)c(OC)c3)cc2OC[C@H]2CCCN(C)C2)C1`, the Kd in test [4] was 5.59 µM; in test [5], 0.167 to 0.343 µM; at CREB-binding protein [6], 0.151 to 0.208 µM. Moreover, the concentration for half-maximal inhibition (IC50) in test [7] is 0.6 µM. Take `CCCOc1ccc(CCc2nc3cc(-c4c(C)noc4C)ccc3n2CCN2CCOCC2)cc1`: the Kd in test [8] is 20 µM. Usually EC50 stands for the concentration giving half of the maximal effect. In test [9], `NCCCNCc1ccc(NCCCN)[n+]([O-])c1` came in with an IC50 of 0.93 µM. Moreover, the 50% effective concentration (EC50) in [10] stood at 11.5 µM. The compound `C[C@H](Nc1nn(C)c(=O)n(C)c1=O)[C@H](c1ccc(S(=O)(=O)c2ccccc2)cc1)N(C)C` showed an IC50 in [11] of 0.07 µM. In test [12], `CO[C@H]1CNC[C@@H](OCC2CCC(F)(F)CC2)[C@@H]1Nc1ncc(-c2cncc(C)c2)c2cc(C)c(=O)[nH]c12` registered an equilibrium dissociation constant (Kd) of 0.001 µM. As for `CC1Nc2ccccc2NC1=O` (stereo not given), the IC50 at CREB-binding protein [13] stood at 1900 µM. On to `CC(=O)NCCCC[C@@H]1NC(=O)[C@H](Cc2c[nH]c3ccccc23)NC(=O)[C@@H](NC(C)=O)CSSCC(C(=O)N[C@@H](Cc2ccccc2)C(=O)N[C@@H](CCCCN)C(N)=O)NC(=O)[C@H](CC(C)C)NC(=O)[C@H](CCCCN)NC1=O` (single isomer, unassigned), for which binding on CREB-binding protein [14] was characterised by a dissociation constant (Kd) of 8 µM.
